Patent US20020107197A1, “Ligands for G protein coupled receptors and methods of using them” (priority 2000, published 2002)

How the values were obtained:
GPR4 [1] = molecular target: T1, GPR4 (Homo sapiens, UniProt P46093); test: Radioligand binding to homogenates of GPR4-transfected CHO cells; conditions: GPR4-transfected CHO cell homogenates; for maximum binding capacity / Kd: 4° C.; for Kd: Scatchard analysis, [3H]SPC or [3H]16:0-LPC, read-out: dissociation constant (Kd); for competition for binding of [3H]SPC and [3H]16:0-LPC to GPR4: cold competitors
T1 construct: were used to generate full length GPR4, which was digested with EcoRI and Xba I and cloned into the pBs3HA vector; expressed in transfected cells
Method: To characterize the binding of SPC and LPC to GPR4 and TDAG8, we conducted radioligand binding assays. CHO cells were chosen for GPR4 binding assays, since HEK293 cells express relatively high levels of endogenous GPR4. CHO cells stably transfected with empty vector or GPR4 were serum starved for 20 h, then collected after exposure to 2 mM EDTA in PBS. The pelleted cells were stored at −80° C. until use. Binding assays were performed essentially as described previously (Xu et al. (2000) Nat Cell Biol 2, 261-267), except binding was performed at 4° C. Briefly, frozen cells (10^6 cells/ml) were homogenized in a binding buffer. Assays were performed in 96-well plates in triplicate with 100 μl cell homogenate (equivalent to 10^5 cells/well). Different amounts of [^3H]SPC or [^3H]16:0-LPC were added to the cell homogenates in 50 μl of binding buffer, in the presence or absence of cold SPC or 16:0-LPC, or other competitors. The plates were incubated at 4° C. for 120 min, unless otherwise indicated. Cell-bound [^3H]SPC or [^3H]LPC was collected onto a filter (Printed Filtermat A, Wallac, Gaithersburg, Md.) using an automated cell harvester (HARVESTER 96, Tomtec, Orange, Conn.). Specific binding was calculated by subtraction of nonspecific binding (binding detected in the presence of 100-fold excess unlabeled SPC or 16:0-LPC) from the total binding.
Cell homogenates were used for binding assays. Binding was conducted at 4° C. for 120 min or as indicated. [^3H]SPC and [^3H]16:0-LPC specifically bound to cell homogenates from GPR4-transfected CHO cells in a time-dependent manner and reached equilibrium after 60 min incubation at 4° C. […] The maximum binding capacities for SPC and 16:0-LPC were 996 fmole/10^5 cells for SPC and 1,528 fmole/10^5 cells for 16:0-LPC. […] Binding assays using [^3H]18:0-LPC gave similar results. We also tested the four glycosphingolipids, Psy, Glu-Sph, Gal-Cer, and Lac-Cer, for their ability to compete for the binding of [^3H]SPC and [^3H]16:0-LPC to GPR4.

[2] = system: vector-transfected HEK293 cells; test: SRE luciferase reporter in vector-transfected HEK293 cells; assay type: cell-based, human
Method: The serum-response element (SRE) reporter system is a sensitive assay for receptors of lipid factors (An et al. (1998) J Biol Chem 273, 7906-7910; An et al. (1999) Mol Pharmacol 55, 787-794). The SRE reporter system used herein (pSRE-Luc) was a gift from Dr. Songzhu An (UCSF), or may be purchased from Stratagene (La Jolla, Calif.). Both systems give identical results. HEK293 and HEK293GPR4 cells were cultured in RPMI1640 with 10% FBS in 10 cm dishes to ˜85% confluence. To the cells in each dish, pSRE-Luc (10 μg) was transfected in the presence of 60 μl LipofectAMINE reagent. Cells were seeded in 96-well plates 16 h after transfection, incubated for another 24 h in RPMI1640 with 10% FBS, and starved in serum-free medium for 16 h. SPC (dissolved in PBS to 10 mM) and other lipids (LPCs were dissolved in 70% ethanol. Other lipids were dissolved in PBS, 70-95% ethanol, or 100% MeOH) were diluted in serum free RPMI 1640 and added to the cells, followed by a 10 h incubation. Luciferase activity was measured in Microlite™ 1 plates (DYNEX Technologies, Inc., Virginia) using 60 μl of cell lysate and 20 μl luciferase substrate. PTX (100 ng/ml) was added during the 16 h serum starvation period and pcDNA1-C3 (encoding the C3-exoenzyme, 2 μg) was co-transfected with pSRE-Luc (10 μg). All experiments were performed in quadruplicate and were repeated at least three times. The Student's t test was performed using the GraphPad Instat software (San Diego, Calif.). p<0.05 was considered to be statistically significant.

GPR4 [3] = molecular target: T1, GPR4; test: Single-cell intracellular calcium assay (fura-2) in GPR4-GFP-transfected MCF10A cells; assay type: cell-based; conditions: for increase in [Ca2+]i in GPR4- vs vector-transfected/parental MCF10A cells: lipid at 1 μM; for EC50: GPR4-transfected MCF10A cells, 1 mM EGTA, read-out: EC50 of calcium mobilization; for block of the lipid-induced increase in [Ca2+]i by BSA: lipid 1 μM preincubated with 0.5% fatty acid-free BSA, lipid:BSA approximately 1:75
Method: Measurement of [Ca^2+]i, was performed as described previously in Xu et al. (2000) Nat Cell Biol 2, 261-267. Briefly, pGPR4-GFP-transfected MCF10A cells were grown in specialized glass-bottom dishes (Bioptech, Inc., Butler, Pa.) and loaded with fura-2 in HEPES buffered saline. Using a dual-wavelength spectrofluorometer (RFK-6002, Photon Technology Int'l, So. Brunswick, N.J.) coupled to an inverted fluorescence microscope (Olympus, IX-70, Lake Success, N.Y.), GFP-positive cells were identified using an excitation wavelength of 488 nm, a dichroic 505 nm long-pass filter and an emitter filter at bandpass of 535 nm (Chroma Technology, Brattleboro, Vt.). Measurements of [Ca^2+]i were performed on individual GPR4-GFP positive cells at excitation wavelengths of 340 and 380 nm and an emission wavelength of 510 nm. Conversion of the 340/380 ratio value into [Ca^2+]i in nM was estimated by comparing the cellular fluorescence ratio with ratios acquired using fura-2 (free acid) in buffers containing known Ca^2+ concentrations. [Ca^2+]i was then calculated as described by Grynkiewicz et al. (1985) J Biol Chem 260, 3440-3450. All calcium assays were performed in the presence of 1 mM EGTA in the assay buffers. Therefore, intracellular calcium release, not calcium influx, was analyzed.
To test whether GPR4 is a receptor for SPC, MCF10A cells were transiently transfected with pGPR4-GFP.
The GFP receptor fusion was used to identify positively transfected cells, and single-cell calcium assays were performed as described in our previous studies, such as Xu et al. (2000) Nat Cell Biol 2, 261-267.

Swiss 3T3 cells = test: DNA synthesis ([3H]thymidine incorporation) in parental and GFP-infected Swiss 3T3 cells; assay type: cell-based
Method: The effect of SPC and LPC on DNA synthesis was measured using [^3H] thymidine incorporation. Briefly, GPR4-ires-GFP- and GFP-Swiss 3T3 cells were plated in 96-well plates, serum-starved for 24 h, and treated with SPC, LPC, or other lipids in serum-free DMEM for 24 h. Cells were incubated with 0.75 μCi/ml [^3H]thymidine in serum-free DMEM for the last 18 h. Cells were harvested onto filter papers presoaked in 1% polyethylenimine using the automated cell harvester HARVEST 96. Incorporated [^3H]thymidine was counted in a 1450 Microbeta Trilux Liquid Scintillation and Luminescence Counter (Perkin-Elmer-Wallac, Inc.).

T1 sequence (P46093 whole entry): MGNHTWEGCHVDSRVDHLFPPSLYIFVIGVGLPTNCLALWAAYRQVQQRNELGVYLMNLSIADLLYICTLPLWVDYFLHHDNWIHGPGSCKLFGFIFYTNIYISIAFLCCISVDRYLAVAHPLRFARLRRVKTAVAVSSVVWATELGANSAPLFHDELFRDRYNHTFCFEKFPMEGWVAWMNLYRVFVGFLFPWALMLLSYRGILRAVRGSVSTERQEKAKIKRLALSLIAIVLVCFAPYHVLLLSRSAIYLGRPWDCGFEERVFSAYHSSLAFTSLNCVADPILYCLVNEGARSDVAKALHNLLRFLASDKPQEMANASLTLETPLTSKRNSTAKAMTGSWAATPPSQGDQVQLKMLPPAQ

Compound	maximum binding capacity (GPR4 [1])	Kd (GPR4 [1])	competition for binding of [3H]SPC and [3H]16:0-LPC to GPR4 (GPR4 [1])	transcriptional activation of SRE (in words) [2]	increase in [Ca2+]i in GPR4- vs vector-transfected/parental MCF10A cells (GPR4 [3])	DNA synthesis response (in words) (Swiss 3T3 cells; GFP-expressing cells)	activation of SRE reporter ([2]; lipid 1 μM)	EC50 (GPR4 [3])	block of the lipid-induced increase in [Ca2+]i by BSA (GPR4 [3])	increase of DNA synthesis (Swiss 3T3 cells; 3 μM, parental and GFP-infected cells)
CCCCCCCCCCCCCCCC(=O)OC[C@@H](O)COP(=O)([O-])OCC[N+](C)(C)C [16:0-LPC]	1,528 fmole/10^5 cells	159 nM	successfully competed for binding	not	stimulated to produce increased [Ca^2+]i	did not respond significantly				
CCCCCCCCCCCCC/C=C/[C@@H](O)[C@@H](N)COP(=O)([O-])OCC[N+](C)(C)C [SPC, Sphingosylphosphorylcholine]	996 fmole/10^5 cells	36 nM	successfully competed for binding		stimulated an increase in [Ca^2+]i in GPR4-, but not vector-transfected MCF10A cells		≤ 1.5 fold	105 nM	more than 50%	approximately 6.3 fold
lysophosphatidylcholine [LPC]		159 nM						1100 nM	> 95%	
